From article PMC12524408 (International Journal of Molecular Sciences, 2025)
No end group written: not given here.

How the values were obtained:
[1] = test system: DSS-induced colitis; conditions: cited from earlier work; for Therapeutic effect in colitis: 25 nmol/kg subcutaneously, previous studies
Description: Nevertheless, the 25 nmol/kg dose was selected for further evaluation (Figure 5). […] The in vivo pharmacological studies were conducted by a contract research organization (CRO), LSI Medience Ltd. (Kumamoto, Japan), and were not in an academic setting. Although the studies were conducted professionally, a blinded evaluation was not implemented, which may have introduced bias. Additionally, histological analysis of the colonic tissue was not performed. […] Future pharmacologi ...

[2] = Stability (degradation) in human serum; assay type: in vitro ADME; conditions: pooled human serum, 100 μL in 200 μL (10 mM NaH2PO4 pH 7.1, 100 mM NaCl), 37 °C, 60 min; fluorescence immunoassay; mean, n = 3; read-out: % remaining in human serum after 60 min
From the text: Error bars are shorter than the symbol size.

remaining at 1 h [2] [%]	Molecule	Therapeutic effect in colitis [1]	Histological analysis of colonic tissue ([1]; previous study)
–	20 kDa PEGylated AM ({PEG 20 kDa}-YRQSMNNFQGLRSFGCRFGTCTVQKLAHQIYQFTDKDKDNVAPRSKISPQGY; ends and bridges not checked; UniProt P35318 95-146, looked up) [20 k PEG-AM]	significant therapeutic effects	histological improvements were observed, but were not statistically significant
–	60 kDa PEGylated AM ({PEG 60 kDa}-YRQSMNNFQGLRSFGCRFGTCTVQKLAHQIYQFTDKDKDNVAPRSKISPQGY; ends and bridges not checked; UniProt P35318 95-146, looked up) [60 k PEG-AM]	significant therapeutic effects	–
9.45	CC[C@H](C)[C@H](NC(=O)[C@H](CCC(N)=O)NC(=O)[C@H](Cc1c[nH]cn1)NC(=O)[C@H](C)NC(=O)[C@H](CC(C)C)NC(=O)[C@H](CCCCN)NC(=O)[C@H](CCC(N)=O)NC(=O)[C@@H](NC(=O)[C@@H](NC(=O)[C@@H]1CSSC[C@H](NC(=O)CNC(=O)[C@H](Cc2ccccc2)NC(=O)[C@H](CO)NC(=O)[C@H](CCCNC(=N)N)NC(=O)[C@H](CC(C)C)NC(=O)CNC(=O)[C@H](CCC(N)=O)NC(=O)[C@H](Cc2ccccc2)NC(=O)[C@H](CC(N)=O)NC(=O)[C@H](CC(N)=O)NC(=O)[C@H](CCSC)NC(=O)[C@H](CO)NC(=O)[C@H](CCC(N)=O)NC(=O)[C@H](CCCNC(=N)N)NC(=O)[C@@H](N)Cc2ccc(O)cc2)C(=O)N[C@@H](CCCNC(=N)N)C(=O)N[C@@H](Cc2ccccc2)C(=O)NCC(=O)N[C@@H]([C@@H](C)O)C(=O)N1)[C@@H](C)O)C(C)C)C(=O)N[C@@H](Cc1ccc(O)cc1)C(=O)N[C@@H](CCC(N)=O)C(=O)N[C@@H](Cc1ccccc1)C(=O)N[C@H](C(=O)N[C@@H](CC(=O)O)C(=O)N[C@@H](CCCCN)C(=O)N[C@@H](CC(=O)O)C(=O)N[C@@H](CCCCN)C(=O)N[C@@H](CC(=O)O)C(=O)N[C@@H](CC(N)=O)C(=O)N[C@H](C(=O)N[C@@H](C)C(=O)N1CCC[C@H]1C(=O)N[C@@H](CCCNC(=N)N)C(=O)N[C@@H](CO)C(=O)N[C@@H](CCCCN)C(=O)N[C@H](C(=O)N[C@@H](CO)C(=O)N1CCC[C@H]1C(=O)N[C@@H](CCC(N)=O)C(=O)NCC(=O)N[C@@H](Cc1ccc(O)cc1)C(N)=O)[C@@H](C)CC)C(C)C)[C@@H](C)O [AM, Adrenomedullin]	–	–
